Patent publication US20250228824A1, “COMPOSITIONS AND METHODS FOR INHIBITION OF ITO AS TREATMENT FOR THE J WAVE SYNDROMES AND HYPOTHERMIA” (Lankenau Institute for Medical Research, priority 2021, published 2025)

How the values were obtained:
KV11.1 (hERG-IKr) = target: T1, KV11.1 (hERG-IKr) (Homo sapiens, UniProt Q12809); assay: Whole-cell patch clamp of IKr in HEK cells stably expressing hERG; assay type: cell-based; details: 50 μM
T1 construct: stably expressing hERG channels (NM_000238); expressed in transfected cells
T1 sequence (Q12809 whole entry): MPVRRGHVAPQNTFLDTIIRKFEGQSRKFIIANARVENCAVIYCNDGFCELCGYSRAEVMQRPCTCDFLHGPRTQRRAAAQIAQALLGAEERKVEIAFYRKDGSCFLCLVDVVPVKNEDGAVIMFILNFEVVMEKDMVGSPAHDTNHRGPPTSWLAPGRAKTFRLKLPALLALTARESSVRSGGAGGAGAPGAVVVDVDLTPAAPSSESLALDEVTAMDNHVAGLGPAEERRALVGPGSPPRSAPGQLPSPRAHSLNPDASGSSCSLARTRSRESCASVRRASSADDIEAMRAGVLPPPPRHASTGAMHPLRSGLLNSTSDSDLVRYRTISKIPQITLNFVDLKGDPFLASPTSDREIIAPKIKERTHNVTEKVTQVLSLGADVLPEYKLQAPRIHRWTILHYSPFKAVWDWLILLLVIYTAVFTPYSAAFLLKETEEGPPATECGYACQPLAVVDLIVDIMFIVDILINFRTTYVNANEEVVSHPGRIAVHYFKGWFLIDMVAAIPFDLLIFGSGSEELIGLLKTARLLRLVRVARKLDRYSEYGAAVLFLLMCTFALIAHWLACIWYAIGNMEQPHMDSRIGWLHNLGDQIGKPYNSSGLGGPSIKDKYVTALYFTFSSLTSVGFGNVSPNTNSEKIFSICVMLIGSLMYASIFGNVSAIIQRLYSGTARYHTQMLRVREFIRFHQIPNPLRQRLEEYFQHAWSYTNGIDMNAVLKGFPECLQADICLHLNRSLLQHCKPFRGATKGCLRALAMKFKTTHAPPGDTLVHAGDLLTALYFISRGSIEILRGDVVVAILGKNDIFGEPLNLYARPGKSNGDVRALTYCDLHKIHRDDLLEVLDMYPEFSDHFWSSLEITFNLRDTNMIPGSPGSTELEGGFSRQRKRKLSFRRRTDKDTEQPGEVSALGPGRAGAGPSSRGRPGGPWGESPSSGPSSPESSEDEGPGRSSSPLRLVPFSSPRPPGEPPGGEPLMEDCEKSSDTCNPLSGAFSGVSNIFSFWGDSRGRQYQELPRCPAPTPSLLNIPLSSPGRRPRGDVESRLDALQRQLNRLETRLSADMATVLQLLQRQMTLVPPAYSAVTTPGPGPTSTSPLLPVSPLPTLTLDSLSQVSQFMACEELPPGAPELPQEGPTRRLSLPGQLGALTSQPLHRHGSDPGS
Experimental: Human Embryonic Kidney (HEK) cells stably expressing hERG channels (NM_000238) were used to evaluate the effect of AR-787 on IKr. The HEK cells were cultured in vented flasks using standard methods. The culture media consisted of MEM α-modified, 10% FBS, 1% L-glutamine, 1% pen-strep and 0.4% G418 (Geneticin). Cells were passaged at 50% confluence.
For electrophysiological study, cells were released from culture with trypsin, rinsed with Ca^2+-free external solution and maintained on ice until used (up to 4 hr). An aliquot of cells was place in a chamber on an inverted microscope (Nikon Diaphot) and perfused with external solution at a rate of 1 ml/min at room temperature. The external solution contained in (mM): 140 NaCl, 5 KCl, 2 CaCl2, 1 MgCl2, 10 HEPES and 10 glucose at pH 7.4 (adjusted with NaOH). Membrane currents recorded with an Axopatch 200B amplifier controlled by Clampex software were digitized at a sampling rate of 10 kHz and filtered at 2 kHz. Micropipettes were fabricated from borosilicate glass and generally had resistances of 1.8-2.4 MΩ when filled with internal solution consisting of (mM): 140 KCl, 1 MgCl2, 5 Na2ATP, 10 HEPES and 10 EGTA (pH 7.3 adjusted with KOH; 300 mOsm). Pipette offset and stray capacitance were compensated with the pipette in the bath solution before seal formation. After achieving cell access, whole-cell capacitance and series resistance were compensated optimally. Series resistance prediction and correction were usually adjusted to 85% or higher leaving an uncompensated series resistance of less than 1 MΩ and voltage errors estimated to be less than 5 mV. Voltage protocols and currents were recorded on a computer for offline analysis using Clampfit and GraphPad software.
IKr was measured using a two-step protocol. Voltage steps of 4 sec duration were applied at 20 sec intervals from a holding potential of −80 mV to −60 to +40 mV in 10 mV steps, followed by a 4 sec step to −50 mV to record the tail currents. […] The step protocol consisted of a voltage step from a holding potential of −80 mV to a test potential of +10 mV for 4 sec then to −50 mV for 4 second. It was repeated at 20 sec intervals. The step protocol was maintained until the current response achieved a stable level (5-7 min). The I-V protocol was then repeated.
For analysis, the following were determined: 1) currents averaged over the last 100 ms of the first voltage clamp step (−60 to +40 mV) and 2) peak tail current during the second voltage clamp step (at −50 mV). These were divided by cell capacitance to normalize for cell size (pA/pF). The time course of tail current […] was fit with a single exponential function using Clampfit. The voltage dependence of activation was determined from tail currents by dividing current value at each voltage by the maximum value for each I-V protocol. Values of current were averaged among cells and expressed as a mean ±SEM.

[1] = test system: coronary-perfused canine right (RV) and left (LV) ventricular wedge models of JWS; assay: Coronary-perfused ventricular wedge models of the J wave syndromes (NS5806 alone or with verapamil); design: QT interval / T wave amplitude / Epi (APD50) / Epi (APD90): unit not given here
Experimental: Ten hearts from purpose-bred adult male mongrel dogs (20-22 kg) were acquired from Covance (Denver, PA) and another 10 hearts from purpose-bred adult male Beagle dogs (10-16 kg) were obtained from Envigo (Denver, PA). Dogs were sedated with ketamine (10 mg/kg, IM) and xylazine 2 (mg/kg, IM). Prior to euthanasia (Euthasol solution: pentobarbital sodium and phenytoin sodium; 0.22 ml/kg, IV), and heparin (human pharmaceutical grade, 1,000 U/kg, IV) were administered 3-4 min before isolation of the hearts via a left thoracotomy. Retrograde aortic perfusion of the hearts with ice-cold cardioplegic solution (modified K-H solution; 16 mM KCl) was immediately performed to rinse the coronary vasculature of blood. The hearts were then placed in a sealed container containing ice-cold cardioplegic solution and transported to our institution via private courier in an insulated package filled with icepacks.
Transmural wedges were dissected from the base of the RV and LV. During the cannulation procedure, preparations were initially arterially perfused with cardioplegic solution. Next, the wedge preparations were placed in a tissue bath and perfused with a modified Krebs-Henseleit solution (K—H) bubbled with 95% O2/5% CO2 warmed to 37° C. The composition of K—H was (in mM): 118 NaCl, 4 KCl, 2 CaCl2, 1.2 MgSO4, 24 NaHCO3, 1.2 NaH2PO4, 2 Na Pyruvate and 10 D-Glucose. The perfusate was delivered at a constant pressure (45-50 mmHg). A transmural pseudo-ECG (ECG) was recorded using two Ag/AgCl half cells placed at ˜1 cm from the Epi (+) and Endo (−) surfaces along the same axis as the transmembrane action potential (AP) recordings. APs were simultaneously recorded from the immediate sub-Epi and M cell region (˜2-3 mm from the Endo surface) using floating glass microelectrodes. Pacing was applied to the Endo surface using bipolar silver electrodes insulated except at the tips (Basic Cycle Lengths [BCLs]: 500-2,000 ms). A detailed description of the arterially-perfused ventricular wedge preparation has been previously published.^5 ECG and AP signals were digitized and analyzed using Spike 2 for Windows (Cambridge Electronic Design, Cambridge, UK).
We used the Ito-agonist NS5806 (5-10 μM) alone or with the calcium-channel blocker verapamil (2.5 μM) to pharmacologically mimic the effects of the ion channel genetic defects underlying ERS and BrS. These provocative agents were added to the coronary perfusate in increasing concentrations until the characteristic ECG phenotypes were unmasked, including phase 2 reentry (P2R), closely coupled premature beats (CCPBs) and/or pVT/VF. AR-787 was added to the perfusate to test its ability to suppress or prevent arrhythmogenesis.

[2] = AR-787 10 μM following NS5806 5-10 μM, 3 LV wedges, BCL 800 msec

Structure (SMILES): Cc1nc(-n2cccc2)sc1C(=O)N=c1[nH]c2ccccc2[nH]1 [AR-787, N-(1H-benzimidazol-2-yl)-4-methyl-2-pyrrol-1-yl-thiazole-5-carboxamide]
- amplitude of the developing IKr (KV11.1 (hERG-IKr)): enhanced between −60 to −20 mV and reduced above 0 mV
- rates of inactivation of IKr tail currents (KV11.1 (hERG-IKr)): significantly slowed at positive voltages
- reduction in IKr peak tail current (KV11.1 (hERG-IKr)): 50%
- shift in the voltage dependence of both developing and tail currents (IKr) (KV11.1 (hERG-IKr)): −20 mV
- shift of voltage-dependence of activation (IKr) (KV11.1 (hERG-IKr)): −25 mV
- effect on NS5806-induced J wave syndrome phenotype ([1]; AR-787 10 μM after NS5806 5-10 μM): reversed these effects induced by NS5806
- Epi (APD50) [1, 2]: 173.9 ± 7.8
- Epi (APD90) [1, 2]: 209.0 ± 8.1
- J wave amplitude [1, 2]: 8.7 ± 5.7
- M (APD50) [1, 2]: 179.0 ± 11.4
- M (APD90) [1, 2]: 235.0 ± 11.1
- Ph1 mag (% Ph0) [1, 2]: 25.4 ± 4.9 % Ph0
- QT interval [1, 2]: 254.3 ± 10.0
- T wave amplitude [1, 2]: 19.0 ± 1.8
- manifestation of AP notch and ECG J wave ([1]; AR-787 1, 10 and 50 μM after NS5806 10 μM, LV and RV wedges): concentration-dependent diminution in the manifestation of the AP notch and associated ECG J wave
- QT interval ([1]; AR-787 1, 10 or 50 μM, NS5806 5-10 μM, five wedges): unaffected
- effect on NS5806-augmented Epi Ph1 magnitude and J wave amplitude ([1]; AR-787 1, 10 or 50 μM, NS5806 5-10 μM, five wedges (4 LV and 1 RV)): readily reversed the effect of NS5806
- ECG and arrhythmic manifestations (extrasystole, polymorphic VT) in ERS model ([1]; LV wedge, NS5806 10 μM and verapamil 2.5 μM, AR-787 10 μM, 30 min): reduced Phase 1 magnitude, restored the AP dome and totally suppressed all arrhythmic activity
- restoration of AP dome and suppression of Phase 2 reentry extrasystoles ([1]; RV wedge, 40 min NS5806 10 μM, AR-787 50 μM but not 10 μM): effective in fully restoring the AP dome and in totally suppressing this arrhythmic activity
